For eleven compounds, mutagenic call results are on record in PubChem BioAssay AID1259407 (Chemical Carcinogenesis Research Information System (CCRIS), 2018).

The data set has as its system CCRIS mutagenicity, Ames/micronucleus/aberration tests. The data set is described as follows: CCRIS mutagenicity studies.
Setting [1] is: Test System: AMES SALMONELLA TYPHIMURIUM, Strain/Indicator: TA98, Metabolic Activation: NONE, Method: PREINCUBATION
The mark [2] stands for this setting: Test System: AMES SALMONELLA TYPHIMURIUM, Strain/Indicator: TA100, Metabolic Activation: NONE, Method: PREINCUBATION
Where [3] appears, read: Test System: AMES SALMONELLA TYPHIMURIUM, Strain/Indicator: TA97, Metabolic Activation: NONE, Method: STANDARD PLATE.
Where [4] appears, read: Test System: AMES SALMONELLA TYPHIMURIUM, Strain/Indicator: TA97, Metabolic Activation: RAT, LIVER, S-9, AROCLOR 1254, Method: STANDARD PLATE.
Setting [5] is: Test System: AMES SALMONELLA TYPHIMURIUM, Strain/Indicator: TA98, Metabolic Activation: NONE, Method: STANDARD PLATE.
[6] abbreviates: Test System: AMES SALMONELLA TYPHIMURIUM, Strain/Indicator: TA98, Metabolic Activation: RAT, LIVER, S-9, AROCLOR 1254, Method: STANDARD PLATE.
Where [7] appears, read: Test System: AMES SALMONELLA TYPHIMURIUM, Strain/Indicator: TA100, Metabolic Activation: NONE, Method: STANDARD PLATE.
The mark [8] stands for this setting: Test System: AMES SALMONELLA TYPHIMURIUM, Strain/Indicator: TA100, Metabolic Activation: RAT, LIVER, S-9, AROCLOR 1254, Method: STANDARD PLATE.
Setting [9] is: Test System: AMES SALMONELLA TYPHIMURIUM, Strain/Indicator: TA102, Metabolic Activation: RAT, LIVER, S-9, AROCLOR 1254, Method: STANDARD PLATE.
The mark [10] stands for this setting: Test System: AMES SALMONELLA TYPHIMURIUM, Strain/Indicator: TA104, Metabolic Activation: RAT, LIVER, S-9, AROCLOR 1254, Method: STANDARD PLATE.
The mark [11] stands for this setting: Test System: AMES SALMONELLA TYPHIMURIUM, Strain/Indicator: TA100, Metabolic Activation: RAT, S-9, AROCLOR, Method: STANDARD PLATE.

Molecules are shown by their SMILES. Calls of active or inactive are those of the source. The rule behind the calls is not given here.

`CC(=O)Nc1ccc2ncccc2c1`: the mutagenic call was “inactive; negative” under setting [1]; “inactive; negative” (Test System: AMES SALMONELLA TYPHIMURIUM, Strain/Indicator: TA98, Metabolic Activation: RAT, LIVER, S-9, KANECHLOR 500, Method: PREINCUBATION); “inactive; negative” under setting [2]; “active; positive” (Test System: AMES SALMONELLA TYPHIMURIUM, Strain/Indicator: TA100, Metabolic Activation: RAT, LIVER, S-9, KANECHLOR 500, Method: PREINCUBATION).

On to `CC1(C)CC[C@]2(C(=O)O)CC[C@]3(C)C(=CC[C@@H]4[C@@]5(C)C[C@H](O)[C@H](O)[C@@](C)(C(=O)O)[C@@H]5CC[C@]43C)[C@@H]2C1`, for which the mutagenic call by setting is: under setting [3], “inactive; negative”; under setting [4], “inactive; negative”; under setting [5], “inactive; negative”; under setting [6], “inactive; negative”; under setting [7], “inactive; negative”; under setting [8], “inactive; negative”. Besides, the mutagenic call is, setting by setting: (Test System: AMES SALMONELLA TYPHIMURIUM, Strain/Indicator: TA102, Metabolic Activation: NONE, Method: STANDARD PLATE) “inactive; negative”; under setting [9], “inactive; negative”.

On to `NCCCNCCCCNCCCN`, for which the mutagenic call is “inactive; negative” (Test System: E. COLI, Strain/Indicator: WP2 UVRA (PKM101), Metabolic Activation: NONE, Method: STANDARD PLATE) and “inactive; negative” (Test System: E. COLI, Strain/Indicator: WP2 UVRA/OXYR (PKM101), Metabolic Activation: NONE, Method: STANDARD PLATE).

On to `CN(C)c1ccc(C(=C2C=CC(=N)C=C2)c2ccc(N(C)C)cc2)cc1`, for which the mutagenic call runs as follows: under setting [3], “inactive; negative”; under setting [4], “inactive; negative”; under setting [5], “inactive; negative”; under setting [6], “inactive; negative”; under setting [7], “inactive; negative”; under setting [8], “inactive; negative”. Moreover, the mutagenic call (Test System: AMES SALMONELLA TYPHIMURIUM, Strain/Indicator: TA104, Metabolic Activation: NONE, Method: STANDARD PLATE) is “inactive; negative” and the mutagenic call under setting [10] was “inactive; negative”.

Consider `Cc1ccc2ccc3c(ccc4c5cccc(C)c5ccc43)c2c1`, for which the mutagenic call is “inactive; negative” under setting [4]; “inactive; negative” under setting [6]; “inactive; negative” under setting [8]; “inactive; negative” under setting [9]; “inactive; negative” under setting [10]; “inactive; negative” (Test System: AMES SALMONELLA TYPHIMURIUM, Strain/Indicator: TA1537, Metabolic Activation: RAT, LIVER, S-9, AROCLOR 1254, Method: STANDARD PLATE).

Regarding `CCCCOc1cc(OC)ccc1C(=O)NOC(C)=O`, the mutagenic call is, setting by setting: under setting [7], “active; positive”; under setting [11], “active; positive”.

With `CC(=O)ON(OCc1ccccc1)C(=O)c1ccccc1`, the mutagenic call is, setting by setting: under setting [5], “active; positive”; under setting [7], “active; positive”; under setting [11], “active; positive”.

On to `O=[N+]([O-])c1ccc2ccc3c4c(cc5ccc1c2c53)C=C[C@H](O)[C@H]4O`, for which the mutagenic call is “active; positive” (Test System: AMES SALMONELLA TYPHIMURIUM, Strain/Indicator: TA98, Metabolic Activation: NONE); “active; positive” (Test System: AMES SALMONELLA TYPHIMURIUM, Strain/Indicator: TA98, Metabolic Activation: RAT, LIVER, S-9, AROCLOR 1254); “inactive; negative” (Test System: CHINESE HAMSTER OVARY, Strain/Indicator: CHO-K1-BH4 (HGPRT), Metabolic Activation: NONE); “inactive; negative” (Test System: CHINESE HAMSTER OVARY, Strain/Indicator: CHO-K1-BH4 (HGPRT), Metabolic Activation: RAT, LIVER, S-9, 3-METHYLCHOLANTHRENE).

As to `CC1=CC(O)=NS(=O)(=O)O1`, the mutagenic call is “inactive; negative” (End Point: In vivo micronucleus, Test System: Peripheral blood normochromatic erythrocytes, Species: Mouse, Strain/Sex: FVB.N/TgN (v-Ha-ras) Tg.AC hemizygous/Female, Route: Oral); “inactive; negative” (End Point: In vivo micronucleus, Test System: Peripheral blood normochromatic erythrocytes, Species: Mouse, Strain/Sex: FVB.N/TgN (v-Ha-ras) Tg.AC hemizygous/Male, Route: Oral); “inactive; negative” (End Point: In vivo micronucleus, Test System: Peripheral blood normochromatic erythrocytes, Species: Mouse, Strain/Sex: p53 Haploinsufficient/ Female, Route: Oral); “active; positive” (End Point: In vivo micronucleus, Test System: Peripheral blood normochromatic erythrocytes, Species: Mouse, Strain/Sex: p53 Haploinsufficient/Male, Route: Oral); “inactive; negative. reevaluation of results: negative” (Test System: MOUSE LYMPHOMA, Strain/Indicator: L5178Y (TK+/TK-), Metabolic Activation: NONE, Method: SUSPENSION/PLATE); “inactive; negative. reevaluation of results: negative” (Test System: MOUSE LYMPHOMA, Strain/Indicator: L5178Y (TK+/TK-), Metabolic Activation: RAT, LIVER, S-9, AROCLOR 1254, Method: SUSPENSION/PLATE).

With `O=c1c(O[C@@H]2O[C@H](CO)[C@@H](O)[C@H](O)[C@H]2O)c(-c2ccc(O)c(O)c2)oc2cc(O)cc(O)c12`, the mutagenic call was “active; positive” (Test System: AMes Salmonella typhimurium, Strain/Indicator: TA98, Metabolic Activation: None, Method: Standard plate); “active; positive” (Test System: Ames Salmonella typhimurium, Strain/Indicator: 98, Metabolic Activation: Rat, Liver, S-9, Aroclor 1254, Method: Standard plate); “inactive; negative” (Test System: Ames Salmonella typhimurium, Strain/Indicator: TA100, Metabolic Activation: None, Method: Standard plate); “active; positive” (Test System: Ames Salmonella typhimurium, Strain/Indicator: TA100, Metabolic Activation: Rat, Liver, S-9, Aroclor 1254, Method: Standard plate).

As for `C=C(C)C(=O)OCCC`, the mutagenic call by setting is: (Test System: AMES SALMONELLA TYPHIMURIUM, Strain/Indicator: TA98, Metabolic Activation: HAMSTER, LIVER, S-9, AROCLOR 1254 (10%), Method: PREINCUBATION) “inactive; negative”; under setting [1], “inactive; negative”; (Test System: AMES SALMONELLA TYPHIMURIUM, Strain/Indicator: TA98, Metabolic Activation: RAT, LIVER, S-9, AROCLOR 1254 (10%), Method: PREINCUBATION) “inactive; negative”; (Test System: AMES SALMONELLA TYPHIMURIUM, Strain/Indicator: TA100, Metabolic Activation: HAMSTER, LIVER, S-9, AROCLOR 1254 (10%), Method: PREINCUBATION) “inactive; negative”; under setting [2], “inactive; negative”; (Test System: AMES SALMONELLA TYPHIMURIUM, Strain/Indicator: TA100, Metabolic Activation: RAT, LIVER, S-9, AROCLOR 1254 (10%), Method: PREINCUBATION) “inactive; negative”. Further, the mutagenic call was “inactive; negative” (Test System: AMES SALMONELLA TYPHIMURIUM, Strain/Indicator: TA1535, Metabolic Activation: HAMSTER, LIVER, S-9, AROCLOR 1254 (10%), Method: PREINCUBATION); “inactive; negative” (Test System: AMES SALMONELLA TYPHIMURIUM, Strain/Indicator: TA1535, Metabolic Activation: NONE, Method: PREINCUBATION); “inactive; negative” (Test System: AMES SALMONELLA TYPHIMURIUM, Strain/Indicator: TA1535, Metabolic Activation: RAT, LIVER, S-9, AROCLOR 1254 (10%), Method: PREINCUBATION); “inactive; negative” (Test System: AMES SALMONELLA TYPHIMURIUM, Strain/Indicator: TA1537, Metabolic Activation: HAMSTER, LIVER, S-9, AROCLOR 1254 (10%), Method: PREINCUBATION); “inactive; negative” (Test System: AMES SALMONELLA TYPHIMURIUM, Strain/Indicator: TA1537, Metabolic Activation: NONE, Method: PREINCUBATION); “inactive; negative” (Test System: AMES SALMONELLA TYPHIMURIUM, Strain/Indicator: TA1537, Metabolic Activation: RAT, LIVER, S-9, AROCLOR 1254 (10%), Method: PREINCUBATION).
